Reference: ChEMBL document CHEMBL1143424, “Diversity of penA alterations and subtypes in Neisseria gonorrhoeae strains from Sydney, Australia, that are less susceptible to ceftriaxone” (2007)
In brackets after ≈: the same amount, converted by molar mass.

Columns and labels:
Neisseria gonorrhoeae [1] = assay: microbe, parasite or virus in culture
Description: Antimicrobial activity against Neisseria gonorrhoeae isolate with PBP2 pattern 13 mutant NG-MAST sequence type 1624 by agar plate dilution method

Neisseria gonorrhoeae [2] = assay: Antimicrobial activity against Neisseria gonorrhoeae isolate with PBP2 pattern 4 mutant NG-MAST sequence type 327 by agar plate dilution method; format: functional
Neisseria gonorrhoeae [3] = assay: microbe, parasite or virus in culture; remark: listed apart in the source
Description: Antimicrobial activity against Neisseria gonorrhoeae isolate with PBP2 pattern 9 mutant NG-MAST sequence type 5 by agar plate dilution method

Neisseria gonorrhoeae [4] = assay: microbe, parasite or virus in culture; remark: listed apart in the source
Description: Antimicrobial activity against Neisseria gonorrhoeae isolate with PBP2 pattern 11 mutant NG-MAST sequence type 5 by agar plate dilution method

Neisseria gonorrhoeae [5] = assay: microbe, parasite or virus in culture; remark: listed apart in the source
Description: Antimicrobial activity against Neisseria gonorrhoeae isolate with PBP2 pattern 13 mutant NG-MAST sequence type 1623 by agar plate dilution method

Neisseria gonorrhoeae [6] = assay: microbe, parasite or virus in culture; remark: listed apart in the source
Description: Antimicrobial activity against Neisseria gonorrhoeae isolate with PBP2 pattern 13 mutant NG-MAST sequence type 1409 by agar plate dilution method

Neisseria = assay: Antimicrobial activity against multiresistant Gonococcus; format: functional
Neisseria gonorrhoeae [7] = assay: microbe, parasite or virus in culture; remark: listed apart in the source
Description: Antimicrobial activity against Neisseria gonorrhoeae isolate with PBP2 pattern 10 mutant NG-MAST sequence type 925 by agar plate dilution method

Neisseria gonorrhoeae [8] = assay: microbe, parasite or virus in culture; remark: listed apart in the source
Description: Antimicrobial activity against Neisseria gonorrhoeae isolate with PBP2 pattern 4 mutant NG-MAST sequence type 69 by agar plate dilution method

Neisseria gonorrhoeae [9] = assay: microbe, parasite or virus in culture; remark: listed apart in the source
Description: Antimicrobial activity against Neisseria gonorrhoeae isolate with PBP2 pattern 10 mutant NG-MAST sequence type 1414 by agar plate dilution method

Neisseria gonorrhoeae [10] = assay: microbe, parasite or virus in culture; remark: listed apart in the source
Description: Antimicrobial activity against Neisseria gonorrhoeae isolate with PBP2 pattern 10 mutant NG-MAST sequence type 835 by agar plate dilution method

Neisseria gonorrhoeae [11] = assay: microbe, parasite or virus in culture; remark: listed apart in the source
Description: Antimicrobial activity against Neisseria gonorrhoeae isolate with PBP2 pattern 5 mutant NG-MAST sequence type 1688 by agar plate dilution method

Neisseria gonorrhoeae [12] = assay: microbe, parasite or virus in culture; remark: listed apart in the source
Description: Antimicrobial activity against Neisseria gonorrhoeae isolate bropyst serotype with PBP2 pattern 12 mutant NG-MAST sequence type 604 by agar plate dilution method

Neisseria gonorrhoeae [13] = assay: microbe, parasite or virus in culture; remark: listed apart in the source
Description: Antimicrobial activity against Neisseria gonorrhoeae isolate with PBP2 pattern 10 mutant NG-MAST sequence type 326 by agar plate dilution method

Neisseria gonorrhoeae [14] = assay: microbe, parasite or virus in culture; remark: listed apart in the source
Description: Antimicrobial activity against Neisseria gonorrhoeae isolate with PBP2 pattern 12 mutant NG-MAST sequence type 1703 by agar plate dilution method

Neisseria gonorrhoeae [15] = assay: microbe, parasite or virus in culture; remark: listed apart in the source
Description: Antimicrobial activity against Neisseria gonorrhoeae isolate with PBP2 pattern 13 mutant NG-MAST sequence type 1676 by agar plate dilution method

Neisseria gonorrhoeae [16] = assay: microbe, parasite or virus in culture; remark: listed apart in the source
Description: Antimicrobial activity against Neisseria gonorrhoeae isolate with PBP2 pattern 10 mutant NG-MAST sequence type 1677 by agar plate dilution method

Neisseria gonorrhoeae [17] = assay: microbe, parasite or virus in culture; remark: listed apart in the source
Description: Antimicrobial activity against Neisseria gonorrhoeae isolate with PBP2 pattern 17 mutant NG-MAST sequence type 1342 by agar plate dilution method

Neisseria gonorrhoeae [18] = assay: microbe, parasite or virus in culture; remark: listed apart in the source
Description: Antimicrobial activity against Neisseria gonorrhoeae isolate with PBP2 pattern 7 mutant NG-MAST sequence type 1619 by agar plate dilution method

Neisseria gonorrhoeae [19] = assay: Antimicrobial activity against Neisseria gonorrhoeae isolate with PBP2 pattern 13 mutant NG-MAST sequence type 1413 by agar plate dilution method; format: functional
Neisseria gonorrhoeae [20] = assay: microbe, parasite or virus in culture; remark: listed apart in the source
Description: Antimicrobial activity against Neisseria gonorrhoeae isolate with PBP2 pattern 12 mutant NG-MAST sequence type 1426 by agar plate dilution method

Neisseria gonorrhoeae [21] = assay: microbe, parasite or virus in culture; remark: listed apart in the source
Description: Antimicrobial activity against Neisseria gonorrhoeae isolate with PBP2 pattern 5 mutant NG-MAST sequence type 1410 by agar plate dilution method

Neisseria gonorrhoeae [22] = assay: Antimicrobial activity against Neisseria gonorrhoeae isolate with PBP2 pattern 7 mutant NG-MAST sequence type 1422 by agar plate dilution method; format: functional
Neisseria gonorrhoeae [23] = assay: microbe, parasite or virus in culture; remark: listed apart in the source
Description: Antimicrobial activity against Neisseria gonorrhoeae isolate with PBP2 pattern 18 mutant NG-MAST sequence type 864 by agar plate dilution method

Neisseria gonorrhoeae [24] = assay: microbe, parasite or virus in culture; remark: listed apart in the source
Description: Antimicrobial activity against Neisseria gonorrhoeae isolate with PBP2 pattern 11 mutant NG-MAST sequence type 1420 by agar plate dilution method

Neisseria gonorrhoeae [25] = assay: microbe, parasite or virus in culture; remark: listed apart in the source
Description: Antimicrobial activity against Neisseria gonorrhoeae isolate with PBP2 pattern 12 mutant NG-MAST sequence type 604 by agar plate dilution method

Neisseria gonorrhoeae [26] = assay: Antimicrobial activity against Neisseria gonorrhoeae isolate with PBP2 pattern 13 mutant NG-MAST sequence type 1425 by agar plate dilution method; format: functional
Neisseria gonorrhoeae [27] = assay: microbe, parasite or virus in culture; remark: listed apart in the source
Description: Antimicrobial activity against Neisseria gonorrhoeae isolate with PBP2 pattern 10 mutant NG-MAST sequence type 1424 by agar plate dilution method

Neisseria gonorrhoeae [28] = assay: Antimicrobial activity against Neisseria gonorrhoeae isolate with PBP2 pattern 17 mutant NG-MAST sequence type 1620 by agar plate dilution method; format: functional
Neisseria gonorrhoeae [29] = assay: microbe, parasite or virus in culture; remark: listed apart in the source
Description: Antimicrobial activity against Neisseria gonorrhoeae isolate with PBP2 pattern 7 mutant NG-MAST sequence type 1622 by agar plate dilution method

Neisseria gonorrhoeae [30] = assay: Antimicrobial activity against Neisseria gonorrhoeae isolate with PBP2 pattern 13 mutant NG-MAST sequence type 1148 by agar plate dilution method; format: functional
Neisseria gonorrhoeae [31] = assay: microbe, parasite or virus in culture; remark: listed apart in the source
Description: Antimicrobial activity against Neisseria gonorrhoeae isolate with PBP2 pattern 9 mutant NG-MAST sequence type 21 by agar plate dilution method

Neisseria gonorrhoeae [32] = assay: microbe, parasite or virus in culture; remark: listed apart in the source
Description: Antimicrobial activity against Neisseria gonorrhoeae isolate with PBP2 pattern 20 mutant NG-MAST sequence type 211 by agar plate dilution method

Neisseria gonorrhoeae [33] = assay: Antimicrobial activity against Neisseria gonorrhoeae isolate with PBP2 pattern 18 mutant NG-MAST sequence type 1621 by agar plate dilution method; format: functional

Structure (SMILES): CO/N=C(\C(=O)N[C@@H]1C(=O)N2C(C(=O)O)=C(CSc3nc(=O)c(O)nn3C)CS[C@H]12)c1csc(N)n1 [CEFTRIAXONE]
- MIC (Neisseria gonorrhoeae [1]): 0.06 µg/mL (≈ 0.108 µM)
- MIC (Neisseria gonorrhoeae [2]): 0.12 µg/mL (≈ 0.216 µM)
- MIC (Neisseria gonorrhoeae [3]): 0.06 µg/mL (≈ 0.108 µM)
- MIC (Neisseria gonorrhoeae [4]): 0.06 µg/mL (≈ 0.108 µM)
- MIC (Neisseria gonorrhoeae [5]): 0.06 µg/mL (≈ 0.108 µM)
- MIC (Neisseria gonorrhoeae [6]): 0.06 µg/mL (≈ 0.108 µM)
- MIC (Neisseria): 0.5 µg/mL (≈ 0.902 µM)
- MIC (Neisseria gonorrhoeae [7]): 0.06 µg/mL (≈ 0.108 µM)
- MIC (Neisseria gonorrhoeae [8]): 0.06 µg/mL (≈ 0.108 µM)
- MIC (Neisseria gonorrhoeae [9]): 0.06 µg/mL (≈ 0.108 µM)
- MIC (Neisseria gonorrhoeae [10]): 0.06 µg/mL (≈ 0.108 µM)
- MIC (Neisseria gonorrhoeae [11]): 0.06 µg/mL (≈ 0.108 µM)
- MIC (Neisseria gonorrhoeae [12]): 0.06 µg/mL (≈ 0.108 µM)
- MIC (Neisseria gonorrhoeae [13]): 0.06 µg/mL (≈ 0.108 µM)
- MIC (Neisseria gonorrhoeae [14]): 0.06 µg/mL (≈ 0.108 µM)
- MIC (Neisseria gonorrhoeae [15]): 0.06 µg/mL (≈ 0.108 µM)
- MIC (Neisseria gonorrhoeae [16]): 0.06 µg/mL (≈ 0.108 µM)
- MIC (Neisseria gonorrhoeae [17]): 0.06 µg/mL (≈ 0.108 µM)
- MIC (Neisseria gonorrhoeae [18]): 0.06 µg/mL (≈ 0.108 µM)
- MIC (Neisseria gonorrhoeae [19]): 0.12 µg/mL (≈ 0.216 µM)
- MIC (Neisseria gonorrhoeae [20]): 0.06 µg/mL (≈ 0.108 µM)
- MIC (Neisseria gonorrhoeae [21]): 0.06 µg/mL (≈ 0.108 µM)
- MIC (Neisseria gonorrhoeae [22]): 0.12 µg/mL (≈ 0.216 µM)
- MIC (Neisseria gonorrhoeae [23]): 0.06 µg/mL (≈ 0.108 µM)
- MIC (Neisseria gonorrhoeae [24]): 0.06 µg/mL (≈ 0.108 µM)
- MIC (Neisseria gonorrhoeae [25]): 0.06 µg/mL (≈ 0.108 µM)
- MIC (Neisseria gonorrhoeae [26]): 0.12 µg/mL (≈ 0.216 µM)
- MIC (Neisseria gonorrhoeae [27]): 0.06 µg/mL (≈ 0.108 µM)
- MIC (Neisseria gonorrhoeae [28]): 0.12 µg/mL (≈ 0.216 µM)
- MIC (Neisseria gonorrhoeae [29]): 0.06 µg/mL (≈ 0.108 µM)
- MIC (Neisseria gonorrhoeae [30]): 0.12 µg/mL (≈ 0.216 µM)
- MIC (Neisseria gonorrhoeae [31]): 0.06 µg/mL (≈ 0.108 µM)
- MIC (Neisseria gonorrhoeae [32]): 0.06 µg/mL (≈ 0.108 µM)
- MIC (Neisseria gonorrhoeae [33]): 0.12 µg/mL (≈ 0.216 µM)
